Reference: patent publication US12691070B2, “Cationic lipids and preparation method thereof” (RiboX Therapeutics HK Limited, priority 2023, dated 2026)

Key:
[1] = test system: Aspartate Aminotransferase (AST); assay: Liver enzyme elevation in serum, AST; type: in vivo; settings: cirRNA (SEQ ID NO: 1) LNPs, BALB/C mice, intravenous 0.5 MPK
Experimental: (§1) 6-8 week old, female BALB/C mice were injected with 0.5 mg*kg-1 of RNA LNPs by intravenous injection. At 2 and 24 hours post injection, animals were bled and sera concentrations of Alanine Aminotransferase (ALT) and Aspartate Aminotransferase (AST) were determined by a blood chemistry analyzer.

MCP-I = MCP-I cytokine elevation in serum; type: in vivo; settings: cirRNA (SEQ ID NO: 1) LNPs, mice
Experimental: 6-8 week old, female BALB/C mice were injected with 0.5 mg*kg-1 of RNA LNPs by intravenous injection. At 2 and 24 hours post injection, animals were bled and sera concentrations of MCP-I were determined by an immunoassay (Luminex).

BALB/C mice [2] = assay: In vivo expression, whole-body luminescence (IVIS)
Experimental: 6-8 week old, female BALB/C mice were injected with 0.05 mg*kg-1 of RNA-LNPs encoding for firefly-luciferase by intravenous injection. At 6 hours post injection, animals were intraperitoneally injected with 15 mg/ml of Luciferin substrate and whole-body luminescence was determined by a bioluminescent in vivo imaging system (IVIS).

Hep G2 cells [3] = assay: In vitro toxicity (CellTiter-Glo cell viability), Hep G2; type: cell-based;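 also: percent of untreated cells luminescence signal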
How it was run: (§2)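 Viability after a 72 h incubation with 1 μg/mL RNA-LNP formulations was assessed luminometrically using CellTiter-Glo.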

[4] = RNA encapsulation efficacy by Quant-IT Ribogreen kit; type: physicochemical; settings: for Encapsulation Efficiency %: LNP with cirRNA (SEQ ID NO: 1); for Encapsulation Efficiency: LNP with mRNA (SEQ ID NO: 2)
How it was run: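 LNPs of ionizable lipid/DSPC/cholesterol/DMG-PEG 2000 (50:10:38.5:1.5) made by microfluidic mixing of luciferase circRNA or mRNA in pH 4.5 acetate with lipids in ethanol (3:1, 12 ml/min), ionizable lipid:nucleotide 15 or 6, then dialyzed against PBS. Size, PDI (DLS) and zeta potential on Zetasizer; encapsulation by Ribogreen ± Triton X-100.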

[5] = test system: Alanine Aminotransferase (ALT); assay: Liver enzyme elevation in serum, ALT; type: in vivo; settings: cirRNA (SEQ ID NO: 1) LNPs, BALB/C mice, intravenous 0.5 MPK
Experimental: as §1

BALB/C mice [6] = assay: Local tolerance determination by footpad injection; type: in vivo; settings: cirRNA (SEQ ID NO: 1) LNP, 0.175 mg*kg-1 subcutaneous into the footpad, 24 hours post minus prior
Experimental: 6-8 week old, female BALB/C mice were injected with 0.175 mg*kg-1 RNA LNPs by subcutaneous injection into the footpad. Prior to, and 24 hours post injections, injected footpad thickness was determined by a caliper.

[7] = LNP zeta potential (Zetasizer); type: physicochemical
How it was run: (§3)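 Ribogreen fluorescence with and without Triton X-100 gave encapsulation as 100% − (intact/lysed) signal; DLS size, PDI and zeta potential measured on a Zetasizer. Particles: 50:10:38.5:1.5 lipid mix, luciferase circRNA or mRNA, lipid:nucleotide 15 or 6, microfluidic assembly at pH 4.5, PBS-dialyzed.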

RAW 264.7 cells [8] = assay: In vitro toxicity (CellTiter-Glo cell viability), RAW 264.7; type: cell-based;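 also: percent of untreated cells luminescence signal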
How it was run: as §2

[9] = LNP size and polydispersity index (PDI) by dynamic light scattering; type: physicochemical; settings: for Size: in nm (unit assumed)
How it was run: as §3

RAW 264.7 cells [10] = assay: In vitro expression of firefly-luciferase, RAW 264.7; type: cell-based
How it was run: (§4)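 Cells were transfected with firefly-luciferase-encoding RNA-LNPs at 100 ng/mL. After 72 hours they were washed and lysed, and luciferase activity in the lysates was read by luminometry.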

Hep G2 cells [11] = assay: In vitro expression of firefly-luciferase, Hep G2; type: cell-based
How it was run: as §4

[12] = cirRNA (SEQ ID NO: 1) LNPs, BALB/C mice
[13] = mRNA (SEQ ID NO: 2) LNP, 0.05 mg*kg-1 intravenous, 6 hours post injection
[14] = cirRNA (SEQ ID NO: 1) LNPs, Hep G2 cells
[15] = mRNA (SEQ ID NO: 2) LNP, 1 μg/mL, 72 hours post transfection
[16] = cirRNA (SEQ ID NO: 1) LNPs, RAW 264.7 cells
[17] = cirRNA (SEQ ID NO: 1) LNPs, firefly-luciferase luminescence, RAW 264.7 cells
[18] = mRNA (SEQ ID NO: 2) LNP, 100 ng/mL, 72 hours post transfection, luciferase activity
[19] = cirRNA (SEQ ID NO: 1) LNPs, firefly-luciferase luminescence, Hep G2 cells

| SMILES | AST in Sera (IU/L) 2 hours After 0.5 MPK Injection [1] [IU/L] | AST in Sera (IU/L) 24 hours After 0.5 MPK Injection [1] [IU/L] | MCP-I in Sera 2 hours After 0.5 MPK Injection (MCP-I) [pg/mL] | MCP-I in Sera 24 hours After 0.5 MPK Injection (MCP-I) [pg/mL] | In vivo Expression (Whole Body) (BALB/C mice [2]; [12]) | In vivo Expression (Whole Body) (BALB/C mice [2]; [13]) | In vitro Viability HepG2 (Hep G2 cells [3]; [14]) [%] | In vitro Viability HepG2 (Hep G2 cells [3]; [15]) [%] | Encapsulation Efficiency % [4] [%] | Encapsulation Efficiency [4] [%] | ALT in Sera (IU/L) 2 hours After 0.5 MPK Injection [5] [IU/L] | ALT in Sera (IU/L) 24 hours After 0.5 MPK Injection [5] [IU/L] | Footpad Thickness (24 h−0 h, mm) (BALB/C mice [6]) [mm] | Zeta (mV) ([7]; LNP with cirRNA (SEQ ID NO: 1)) | Zeta (mV) ([7]; LNP with mRNA (SEQ ID NO: 2)) | In vitro Viability RAW (RAW 264.7 cells [8]; [16]) [%] | In vitro Viability RAW (RAW 264.7 cells [8]; [15]) [%] | PDI ([9]; LNP with cirRNA (SEQ ID NO: 1)) | Size ([9]; LNP with cirRNA (SEQ ID NO: 1)) | PDI ([9]; LNP with mRNA (SEQ ID NO: 2)) | further results |
| --- | --- | --- | --- | --- | --- | --- | --- | --- | --- | --- | --- | --- | --- | --- | --- | --- | --- | --- | --- | --- | --- |
| CCCCCCCCC(CCCCCCCC)OC(=O)CCCCCCCN(CCCCCCCCOC(=O)C(CCCCCC)CCCCCCCC)CCCOC(=O)NCCN1CCCCC1 (centres unmarked) [Lipid 351] | 232.67 | 389.33 | 3172.67 | 1133.74 | 1.35E+08 | 1.71E+08 | 96 | 87 | 95 | 66.39 | 74.33 | 149.33 | 0.68 | −0.1951 | −4.142 | 98 | 94 | 0.1705 | 99.16 | 0.3512 | Size ([9]; LNP with mRNA (SEQ ID NO: 2)): 178.8; In vitro Expression RAW (RAW 264.7 cells [10]; [17]): 6.44E+05; In vitro Expression RAW (RAW 264.7 cells [10]; [18]): 3.41E+06; In vitro Expression HepG2 (Hep G2 cells [11]; [19]): 1.87E+06; In vitro Expression HepG2 (Hep G2 cells [11]; [18]): 1.00E+07 |
| CCCCCCCCCCC(CCCCCCCC)COC(=O)CCCCCN(CCCCCC(=O)OCC(CCCCCCCC)CCCCCCCCCC)CCOC(=O)NCCN1CCCCC1 (centres unmarked) [Lipid 169] | 129.50 | 87.00 | 509.14 | 80.18 | 4.92E+08 | 1.46E+09 | 88 | 93 | 95 | 87.64 | 65.40 | 57.80 | 0.84 | −2.92 | −0.8755 | 82 | 83 | 0.003 | 73.59 | 0.07881 | Size ([9]; LNP with mRNA (SEQ ID NO: 2)): 88.09; In vitro Expression RAW (RAW 264.7 cells [10]; [17]): 5.36E+05; In vitro Expression RAW (RAW 264.7 cells [10]; [18]): 2.87E+06; In vitro Expression HepG2 (Hep G2 cells [11]; [19]): 1.94E+06; In vitro Expression HepG2 (Hep G2 cells [11]; [18]): 1.59E+07 |
| CCCCCCCCCC(=O)OCCCCCCCN(CCCCCCCCOC(=O)C(CCCCCC)CCCCCCCC)CCOC(=O)NCCN(C)C (centres unmarked) [Lipid 197] | 215.67 | 237.67 | 1958.67 | 122.47 | 3.04E+07 | 4.89E+08 | 88 | 116 | 96 | 79.87 | 106.67 | 171.00 | 0.08 | 5.5 | 13.59 | 0 | 0 | 0.14 | 82.64 | 0.07142 | Size ([9]; LNP with mRNA (SEQ ID NO: 2)): 113.7; In vitro Expression RAW (RAW 264.7 cells [10]; [17]): 1.87E+04; In vitro Expression RAW (RAW 264.7 cells [10]; [18]): 1.19E+07; In vitro Expression HepG2 (Hep G2 cells [11]; [19]): 6.41E+05; In vitro Expression HepG2 (Hep G2 cells [11]; [18]): 2.51E+07 |
| CCCCC/C=C\C/C=C\CCCCCCCCN(CCCCCCCC(=O)OC(CCCCCCCC)CCCCCCCC)CCCOC(=O)NCc1ncc[nH]1 [Lipid 271] | 200.67 | 231.33 | 1986.67 | 522.62 | 8.99E+07 | 8.51E+08 | 91 | 117 | 93 | 94.51 | 128.33 | 114.67 | 0.40 | 0.345 | 0.8825 | 121 | 85 | 0.2068 | 98.73 | 0.1219 | Size ([9]; LNP with mRNA (SEQ ID NO: 2)): 97.34; In vitro Expression RAW (RAW 264.7 cells [10]; [17]): 1.59E+06; In vitro Expression RAW (RAW 264.7 cells [10]; [18]): 6.06E+06; In vitro Expression HepG2 (Hep G2 cells [11]; [19]): 5.51E+06; In vitro Expression HepG2 (Hep G2 cells [11]; [18]): 3.69E+06 |
| CCCCCCCCC(CCCCCCCC)OC(=O)CCCCCCCN(CCCCCCCCOC(=O)C(CCCCCC)CCCCCCCC)CCCOC(=O)NCCN(C)C (centres unmarked) [Lipid 344] | 333.67 | 340.00 | 7150.00 | 946.87 | 7.43E+07 | 2.15E+09 | 96 | 78 | 97 | 93.45 | 161.67 | 204.33 | 0.53 | 2.343 | 1.967 | 94 | 88 | 0.1332 | 98.08 | 0.1063 | Size ([9]; LNP with mRNA (SEQ ID NO: 2)): 97.82; In vitro Expression RAW (RAW 264.7 cells [10]; [17]): 1.97E+06; In vitro Expression RAW (RAW 264.7 cells [10]; [18]): 1.59E+07; In vitro Expression HepG2 (Hep G2 cells [11]; [19]): 1.08E+07; In vitro Expression HepG2 (Hep G2 cells [11]; [18]): 8.78E+07 |
